Where “and” joins values, the source holds several entries; their conditions need not be identical. Identical values can stand only once. Like-named read-outs stand apart in the source and are kept apart here. Each block holds one molecule with its values, some of them ahead of it.
Columns and labels:
[1] = test system: pig internal anal sphincter muscle; assay: In vitro contraction of internal anal sphincter muscle strips in superfusion organ bath; type: cell-based; settings: for EC50: Sus scrofa; for contraction of smooth muscle strips from the IAS: dose range 10^−2M to 10^−8M
Description: Tissue was obtained from female Large White pigs from a local abattoir. Pieces of internal anal sphincter muscle were cut and the tissue was transferred immediately to Krebs solution at 4° C. (120 mM NaCl, 5.9 mM KCl, 15.4 mM Na2HCO3, 1.2 mM NaH2PO4, 2.5 mM CaCl2, 1.2 mM MgCl2, 11.5 mM glucose, equilibrated with 97% oxygen and 3% carbon dioxide to maintain the pH at 7.4±0.05). The epithelium of the anal canal was removed along with the submucosa. Strips of the internal anal sphincter (IAS) were cut, each measuring approximately 1×1×7 mm, weighing 2 mg to 8 mg and containing parallel muscle bundles. Fine 5-0 silk ligatures were tied to each end and the strips mounted for isometric tension recording in superfusion organ baths (capacity 0.2 ml)^19 as shown in FIG. 1. The muscle strip 1 is held by a thread 2 to secure it in position within the Perspex jacket 3. The strips were perfused continuously with Krebs solution (37° C.) at a rate of 1 ml/min introduced via an inflow 4 and exiting via an overflow 5. This apparatus allows six strips to be studied simultaneously. The strips were initially loaded with 1 g tension and allowed to equilibrate for at least 90 minutes. Tension was measured by Pioden dynamometer UF1 transducer (Pioden Controls, Canterbury, UK) involving a tension transducer 6 and ring electrodes 7 and 7a, and recorded both on a six channel Tekman 900 pen recorder (Tekman Electronics, Learnington Spa, UK) and using Chart v3.6 and MacLab Data Acquisition System (AD Instruments, Australia).
Phenylephrine (Sigma Chemical Co., Poole, UK), methoxamine racemate and the four methoxamine isomers were dissolved in Krebs solution and tested for their effect on IAS tone. Methoxamine racemate, that is to say, an equimolar mixture of the four isomers, was produced by Prosyth Limited, Acton, Sudbury, Suffolk. The four isomers (called peaks 1 to 4), were separated as described in Example 3. Peak 2 is 1R,2S-methoxamine. The 1R,2S isomer was also synthesised as described in Example 4. It has been confirmed by crystallography that peak 2 is 1R,2S-methoxamine.
IAS strips developed intrinsic tone during the equilibrium period. After equilibration increasing concentrations of each of the test compounds were added for 20 second periods, with intervening washout periods of at least ten minutes, until the tone had returned to baseline.
Results are expressed as mean (standard error of the mean) and the number of surgical specimens from which these strips were derived. A maximum of six strips were used from each pig for each test compound.
Test compound-induced increases in tone were calculated by taking the peak tone after application of the test compound and […]. This figure was then expressed as a percentage of maximal increase in tone seen across the dose range used (10^−2M to 10^−8M). All analysis was performed using Chart v3.6 software.
EC50 values were calculated by plotting concentration-response curves for each muscle strip. The dose causing 50% of maximal contraction was calculated by linear regression. EC50 values for different drugs were compared using a two-tailed t-test, assuming unequal variance and with p<0.05 considered significant.

anaesthetised minipigs [2] = assay: Peripheral arterial blood pressure in anaesthetised minipigs after topical administration to the anoderm; type: in vivo, Göttingen-minipigs; settings: 0.5 ml of 0.3%, 1%, 3% gels
Description: (§1) The test substances were administered topically to the anoderm using a volume of 0.5 ml/animal. The interval between each observation period was 20 minutes. The administration was performed employing a 1 ml syringe inserted approximately 1 cm into the anal canal. The test substances were administered slowly while the syringe was rotated. After the preparation and a period of at least 15 minutes for stabilisation of the circulatory functions, the animals were treated with the placebo or the selected dose levels of the test substance by administration to the anoderm.
An intraarterial indwelling catheter (size 0.8×1.4 mm, B. Braun Melsungen AG, D-34212 Melsungen, Germany) was connected to a pressure transducer (DTX, Pfrimmer-Viggo, Erlangen, Germany) recording the systolic and diastolic arterial blood pressure in the right or left a. femoralis. The signal was boosed by a Hellige Servomed SMV 178 T amplifier (Hellige GmbH, D-79100 Freiburg, Germany). The blood pressure was recorded and monitored with a Hellige Cardiognost EK 512 P (paper speed: 2.5 mm/sec). Systolic and diastolic blood pressure [mmHg] were determined and the mean pressure was calculated according to the following formula: Mean blood pressure [mmHg]=(systolic pressure+(2×diastolic pressure))/3 Heart Rate and Electrocardiography […]

anaesthetised minipigs [3] = assay: Mean anal resting pressure (MARP) in anaesthetised minipigs after topical administration to the anoderm; type: in vivo, Göttingen-minipigs; settings: for effect on internal anal sphincter pressure and blood pressure: pigs in vivo
Description: • a) Placebo in 4% w/w gel • b) 0.3% by weight 1R,2S-methoxamine in 4% w/w gel • c) 1% by weight 1R,2S-methoxamine in 4% w/w gel • d) 3% by weight 1R,2S-methoxamine in 4% w/w gel • The 4% w/w gel comprises 4 g of hydroxypropylmethyl cellulose in 96 ml of 0.5M acetate buffer. 1% by weight 1R,2S-methoxamine in 4% w/w gel comprises 1 g of 1R,2S-methoxamine in 99 g of the 4% gel. Animals/Animal Maintenance
Göttingen-minipigs obtained from Ellegaard Göttingen Minipigs ApS, Soro Landevej 302, DK-4261 Dalmose, Denmark were used for the investigation. […] Four male animals were used. Animal no. 2 was replaced by animal no. 4, see below.
The minipigs were anaesthetised with a chloralose-urethane mixture (ratio 1+5). Additional anaesthesia was given when needed. To ensure a stable general condition of the minipig, blood gases and pH-value were measured in blood obtained from the right or left a. femoralis using a blood gas analyser ABL 70 (Radiometer, Copenhagen, Denmark) before start of experiment. Ringer solution (5 ml/kg b.w./h) was given continuously to compensate for fluid losses. The body temperature of the animals was maintained at 38° C. throughout the experiment of external heating.
as §1
The anal resting pressure was measured by introduction of a manometric probe (Unisensor Microtipcatheter 8104-00-9409-D; Medical Measurement Systems b.v., Collosseum 25, NL-7521P.V. Enschede, The Netherlands) into the rectum three times. The anal resting pressure taken as a mean of these three measurements (MARP) was recorded with a Rikadenki Multipenrecorder.

[4] = Methoxamine plasma levels in minipigs after topical administration to the anoderm; type: in vivo, Göttingen-minipigs; settings: for mean peak plasma levels: 0.5 ml topical, two pigs
Description: as §1
Blood samples (5 ml/time-point) were taken immediately before and 10, 20, 40, 60, 90, and 120 minutes after start of administration, and were collected into lithium-heparin containers. The blood samples were immediately cooled at +2° C. to +8° C. by the use of an IsoTherm-Rack system (Eppendorf-Netheler-Hinz GmbH, D-22331 Hamburg, Germany) and the whole blood was processed for […]. Plasma was prepared by centrifugation (5 min, 4000 rpm, at +5° C.) and split into aliquots of approx. 1 ml each. Both plasma aliquots were immediately frozen at −80° C. at least and stored at this temperature until dispatch of one aliquot on dry ice for analysis.
The samples were analysed for the methoxamine plasma levels. The results are presented in Appendix 3.

anoderm = assay: Macroscopical inspection of the anoderm; type: in vivo, Göttingen-minipigs; settings: 0.3%, 1%, or 3%
Description: A macroscopical inspection of the anoderm was carried out during the experiments. Any obvious irritation and/or erythema caused by the fairly low pH value of the test substance formulation was reported.

anaesthetised minipigs [5] = test system: anaesthetised minipigs; parameters: species or system Göttingen-minipigs; settings: in vivo
Description: as §1
ECG recordings were made using the standard limb leads I, II and III as well as augmented limb leads aVR, aVL and aVF. A standardisation of 10 mm/1 mV was used and a paper speed of 50 mm/sec. The recordings were carried out using a HELLIGE Marquette mac 5000 12SL. The recordings were examined visually for any arrhythmias and abnormalities of the electrical complexes. In addition, the following parameters were evaluated for limb lead II: Heart rate [beats/min]; P segment, [msec]; P-Q interval, [msec]; QRS complex [msec]; Q-T interval, [msec]. The QTc values [msec] were calculated according to the van de Water-formula: QTc=QT−0.087 (R-R distance−1000)
For each measurement period the heart rate, ECG and the blood pressure in the a. femoralis were measured continuously and recorded immediately before and 5, 10, 15, 20, 40 and 60 minutes after start of administration for periods of approx. 30 sec, and then in intervals of 20 minutes until any effect had subsided.

anaesthetised minipigs [6] = assay: Reactivity of the circulatory functions to arterenol or isoproterenol; type: in vivo, Göttingen-minipigs; settings: any of the gels
Description: Before the first administration and at further suitable times after the administration, isoproterenol was administered intravenously for control purposes. Arterenol (norephinephrine hydrochloride, also known as L-noradrenaline) was administered for control purposes at the end of the study only after completing the collection of the blood samples for toxicokinetics.

[7] = test system: patients with incontinence; settings: cited from earlier work
human subjects = settings: cited from earlier work
[8] = IAS smooth muscle strips, n=24(4), read-out: EC50 values
[9] = pig IAS strips, Table 1, read-out: EC50 value μM (±SE)

EC50 [1, 8]: 0.058 µM
EC50 [1, 9]: 58.3 µM
Compound: COc1ccc(OC)c(C(O)C(C)N)c1 (racemic) [methoxamine racemate, 2-amino-1-(2,5-dimethoxyphenyl)-1-propanol]
contraction of smooth muscle strips from the IAS [1]: caused a dose-dependent contraction

maximum plasma levels ([4]; 0.3% formulation): 6 ng methoxamine/ml plasma
time of peak plasma levels ([4]; 0.3% gel): 40 min
mean peak plasma levels ([4]; 0.3% gel): 4.90 ng/mL and 6.97 ng/mL
time of maximum plasma levels following application ([4]; 0.3%, 1% and 3% formulations): approximately 40 minutes
maximum plasma levels ([4]; 1% formulation): 10 ng methoxamine/ml plasma
mean peak plasma levels ([4]; 1.0% gel): 9.88 ng/mL and 11.0 ng/mL
maximum plasma levels ([4]; 3% formulation): 56 ng methoxamine/ml plasma
mean peak plasma levels ([4]; 3.0% gel): 50.4 ng/mL and 61.3 ng/mL
macroscopic inspection: pathological changes (anoderm): No pathological changes were observed
EC50 ([1]; chemically synthesised 1R,2S isomer, pig IAS strips, read-out: EC50): 10.5 µM
EC50 [1, 9]: 17.6 µM
expected reactions to arterenol or isoproterenol (anaesthetised minipigs [6]): not influenced
Compound: COc1ccc(OC)c([C@@H](O)C(C)N)c1 (single isomer, unassigned) [1R,2S-methoxamine]
systolic, diastolic or mean blood pressure (anaesthetised minipigs [2]): not influenced
increase in MARP compared to the start value (anaesthetised minipigs [3]; 0.5 ml of 0.3% gel): 73%
period of MARP increase (anaesthetised minipigs [3]; 0.5 ml of 0.3% gel): 110 min
start of MARP increase after administration (anaesthetised minipigs [3]; 0.5 ml of 0.3% gel): 5 min
MARP (anaesthetised minipigs [3]; 0.5 ml of 0.3% gel, topical to anoderm, average): 50 mmHg
increase in MARP (anaesthetised minipigs [3]; 0.5 ml of 1% gel): 227%
time after application to MARP increase (anaesthetised minipigs [3]; 0.5 ml of 1% gel): ≤ 20 min
MARP (anaesthetised minipigs [3]; 0.5 ml of 1% gel, average): 64 mmHg
MARP (anaesthetised minipigs [3]; 0.5 ml of 3% gel): 70 mmHg
MARP (anaesthetised minipigs [3]; 0.5 ml of 3% gel, listed as IR,2S-methoxamine): approx. 70 mmHg
effect on internal anal sphincter pressure and blood pressure (anaesthetised minipigs [3]; 0.5 ml of gel containing 1% or 0.3% by weight (5 mg and 1.5 mg), topical): increase internal anal sphincter pressure without any effect on blood pressure
effect on internal anal sphincter pressure and blood pressure (anaesthetised minipigs [3]; gels containing 1% by weight and even as little as 0.1% by weight): increase internal anal sphincter pressure without any effect on blood pressure
contraction of smooth muscle strips from the IAS [1]: caused dose dependent contraction
potency at inducing contraction of internal anal sphincter muscle in vitro relative to phenylephrine ([1]; in vitro): at least four times more potent
potency relative to methoxamine racemate ([1]; racemate = equimolar mixture of all four isomers): at least four times the potency
heart rate (anaesthetised minipigs [5]; Göttingen, minipig, 2 h): approx. 100 beats/min
increase in the heart rate (anaesthetised minipigs [5]; Göttingen, minipig, 2 h): 29%
influence on P-segment, P-Q interval, Q-T interval, QTc value and QRS complex (anaesthetised minipigs [5]): no substance-related influence
prolongation of the QT-interval (anaesthetised minipigs [5]): no evidence was noted for a prolongation of the QT-interval
ventricular premature complexes (visual assessment of ECG) (anaesthetised minipigs [5]): did not reveal any ventricular premature complexes

EC50 [1, 8]: 75 µM
EC50 [1, 9]: 74.7 µM
Compound: CNC[C@H](O)c1cccc(O)c1 [Phenylephrine]
subjective improvement in continence ([7]; 10% gel, patients with faecal leakage after ileoanal pouch construction): significantly greater subjective improvement in continence compared to placebo
incontinence scores, resting anal canal pressure or anodermal blood flow ([7]; 10% gel, randomised controlled trial, 36 patients with incontinence): no significant overall improvements
local side effect ([7]; topical preparations of the order of 30-40% by weight): perianal burning has been reported
contraction of smooth muscle strips from the IAS [1]: caused a dose-dependent contraction
duration of rise in resting anal pressure (median) (human subjects; 10% gel, normal human subjects): 7 h
rise in resting anal pressure (human subjects; 10% to 20% by weight gels, patients with low resting pressures and incontinence): no significant rise in resting anal pressure
rise in resting anal pressure (human subjects; 30% and 40% gels, patients with low resting pressures and incontinence): increases did achieve statistical significance
rise in resting anal pressure (human subjects; gel comprising 10% by weight, applied to the anus of normal human subjects): 33%
